The text below walks through data of patent US20070224194A1, “Methods for Inhibiting Angiogenesis and/or Lymphangiogenesis” (LUDWIG INSTITUTE FOR CANCER RESEARCH, priority 2004, published 2007).

The star is where a group is joined. Decanoyl = CCCCCCCCCC(=O)*; CH2Cl = ClC*

Assay [1] concerns proteolytic processing of VEGF-D. The experiment in a line: Processing of VEGF-D secreted by 293EBNA cells expressing VEGF-D-FULL-N-FLAG (immunoprecipitation/Western blot). Type of assay: cell-based, human. To be noted: for proteolytic processing of full-length VEGF-D: 100 μM. How it is done:
293EBNA cells stably transfected with an expression construct encoding VEGF-C-FULL-N-Myc (full-length VEGF-C tagged with Myc at the N-terminus) or VEGF-D-FULL-N-FLAG (full-length VEGF-D tagged with FLAG at the N-terminus) secrete fully and partially processed forms of VEGF-C or VEGF-D into the culture medium (Joukov et al., EMBO J. 16:3898-3911 1997; Stacker et al., J. Biol. Chem. 274: 32127-32136, 1999). These cells were grown overnight in 24-well plates, seeded with 8×10^4 cells per well. At the time when cultures were initiated in these plates, growth medium was supplemented with Dec-RVKR-CMK (Calbiochem) (dissolved in methanol) to a final concentration of 0, 1, 10, 50 or 100 μM. Solvent control cultures were also established, in which the medium was supplemented with methanol at concentrations equal to those present in the cultures treated with inhibitor. After 18 hours of growth (at 37° C., 10% CO2 in a humidified environment), conditioned cell culture medium was removed from the cells and cleared by centrifugation (5 minutes, 250×g, 4° C.).
VEGF-C species were immunoprecipitated from conditioned medium by addition of anti-VEGF-C antibody that binds the VHD and C-terminal propeptide (R&D Systems). VEGF-D species were immunoprecipitated by addition of A2 antiserum that binds within the VHD of VEGF-D (Stacker et al., J. Biol. Chem. 274: 32127-32136, 1999). Immune complexes were allowed to form for 2 hours at 4° C. with gentle agitation and precipitated by addition of 10 μl of protein A sepharose beads and incubation for 2 hours at 4° C. with gentle agitation. Protein A sepharose complexes were recovered by centrifugation (5 minutes, 250×g, 4° C.) and washed twice with ice cold 50 mM Tris, 150 mM NaCl, pH 8.0. The precipitated VEGF-C and VEGF-D species were then analysed by Western blot using biotinylated antibodies against the VHD and C terminus of VEGF-C, or the VHD of VEGF-D (R&D Systems) and streptavidin-horse radish peroxidase conjugate (Zymed) (FIGS. 1 and 2). […]
(§1) The 293EBNA cell lines expressing VEGF-D-FULL-FLAG, VEGF-DΔC or VEGF-DΔN were seeded into 24-well plates (8×10^4 cells/well), in medium supplemented with Dec-RVKR-CMK dissolved in methanol, to a final concentration of 0, 1, 10, 50 or 100 μM. […] The precipitated VEGF-D species were then analysed by reducing SDS-PAGE and Western blotting using a biotinylated antibody against the VHD of human VEGF-D (R&D Systems), and Streptavidin-horse radish peroxidase conjugate (Zymed).

The subject of assay [2] is proteolytic processing of VEGF-DΔC. The experiment in a line: Processing of VEGF-DΔC by 293EBNA cells (cleavage of N-terminal propeptide from VHD). Type of assay: cell-based, human. To be noted: for band representing mature VHD from VEGF-DΔC: 1, 10, 50, 100 μM, 18 hours. An excerpt:
(§2) An expression plasmid encoding a truncated derivative of human VEGF-D consisting of the N-terminal propeptide and the VHD tagged at the carboxyl terminus with the FLAG epitope (referred to as VEGF-DΔC) (FIG. 3, top panel) has been previously described (Stacker et al, J. Biol. Chem. 274 32127-32136, 1999). The VEGF-DΔC protein construct facilitates study of cleavage of the N-terminal propeptide from the VHD. The conditioned media of 293EBNA cells stably transfected with the VEGF-DΔC expression plasmid contain a mixture of VEGF-D proteins, including unprocessed VEGF-DΔC, and the proteolytically processed VHD. A second cell line was generated by stable transfection of 293EBNA cells with an expression construct encoding VEGF-DΔN, a truncated derivative of human VEGF-D consisting of the VHD tagged at the amino terminus with the FLAG epitope and C-terminal propeptide (FIG. 3, top panel). This protein construct facilitates study of cleavage of the C-terminal propeptide from the VHD. The conditioned media of 293EBNA cells expressing VEGF-DΔN contain a mixture of VEGF-D proteins, consisting of unprocessed VEGF-DΔN, and the proteolytically processed VHD. The VEGF-DΔN expression plasmid was constructed by replacing the 2-kb EcoRV fragment of the pAPEX-3 construct for full-length VEGF-D with the 2-kb EcoRV fragment of the pAPEX-3 construct for VEGF-DΔNΔC-FLAG (Stacker et al, J. Biol. Chem. 274 32127-32136, 1999).
The 293EBNA cell lines expressing VEGF-D-FULL-FLAG, VEGF-DΔC or VEGF-DΔN were seeded into 24-well plates (8×10^4 cells/well), in medium supplemented with Dec-RVKR-CMK dissolved in methanol, to a final concentration of 0, 1, 10, 50 or 100 μM. After 18 hours incubation (37° C., 10% CO2 in an humidified incubator), conditioned cell culture media were removed and clarified by centrifugation (5 minutes, 250×g, 4° C.). VEGF-D species were immunoprecipitated from conditioned media of 293EBNA VEGF-DΔC cells by addition of M2-agarose beads (Sigma-Aldrich), that bind the FLAG epitope attached to the carboxyl-terminus of the VHD, and from conditioned media of 293EBNA VEGF-DΔN cells by addition of A2 antiserum, that binds to epitopes within the VHD (Stacker et al, J. Biol. Chem. 274 32127-32136, 1999), followed by incubation with protein-A sepharose beads. Beads and bound proteins were recovered by centrifugation (5 minutes, 250×g, 4° C.) and washed twice with Tris-buffered saline (TBS; 50 mM Tris-Cl, 150 mM NaCl, pH 8.0). The precipitated VEGF-D species were then analysed by reducing SDS-PAGE and Western blotting using a biotinylated antibody against the VHD of human VEGF-D (R&D Systems), and Streptavidin-horse radish peroxidase conjugate (Zymed).

In assay [3] the test system is proteolytic processing of VEGF-DΔN. The experiment in a line: Processing of VEGF-DΔN by 293EBNA cells (cleavage of C-terminal propeptide from VHD). Type of assay: cell-based, human. The settings on record: for band representing mature VHD from VEGF-DΔN: 1, 10, 50, 100 μM, 18 hours.
Description: as §2
as §1, with “μM. After 18 hours incubation (37° C., 10% CO2 in an humidified incubator), conditioned cell culture media were removed and clarified by centrifugation (5 minutes, 250×g, 4° C.).” for “μM.”

Assay [4] relates to VEGF-D propeptide processing. The experiment in a line: VEGF-D processing by Balbc/3T3 cells that naturally produce VEGF-D. Type of assay: cell-based. To be noted: 100 μM. An excerpt:
Finally, the effect of dec-RVKR-CMK on VEGF-D processing by Balbc/3T3 cells that naturally produce this growth factor (i.e., in cells that had not been transfected so as to express VEGF-D) was examined.

The target of a further assay is Furin (Homo sapiens, UniProt P09958). The settings on record: cited from earlier work.
Furin, sequence (P09958 108-794, species assumed): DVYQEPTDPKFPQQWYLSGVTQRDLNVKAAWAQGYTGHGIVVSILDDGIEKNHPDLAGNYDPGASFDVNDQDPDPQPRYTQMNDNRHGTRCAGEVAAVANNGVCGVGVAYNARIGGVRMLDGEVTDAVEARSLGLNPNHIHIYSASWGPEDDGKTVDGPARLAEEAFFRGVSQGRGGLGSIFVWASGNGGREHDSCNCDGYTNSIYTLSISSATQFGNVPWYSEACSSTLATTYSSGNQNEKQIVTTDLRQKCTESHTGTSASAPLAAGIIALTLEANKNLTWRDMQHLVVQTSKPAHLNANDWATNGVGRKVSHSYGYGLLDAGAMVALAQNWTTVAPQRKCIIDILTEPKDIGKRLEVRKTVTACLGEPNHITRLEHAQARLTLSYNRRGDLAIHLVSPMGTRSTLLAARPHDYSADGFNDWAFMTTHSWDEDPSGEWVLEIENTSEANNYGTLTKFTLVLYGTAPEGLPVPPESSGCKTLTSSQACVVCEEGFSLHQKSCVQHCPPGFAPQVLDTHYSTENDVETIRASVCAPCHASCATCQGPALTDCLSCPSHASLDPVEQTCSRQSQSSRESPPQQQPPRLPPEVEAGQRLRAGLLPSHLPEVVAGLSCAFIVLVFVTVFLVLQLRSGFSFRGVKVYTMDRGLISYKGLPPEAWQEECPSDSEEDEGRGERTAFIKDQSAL

For “Decanoyl-Arg-Val-Lys-Arg-chloromethylketone (Decanoyl-RVKR-CH2Cl) [Dec-RVKR-CMK]”, the “abundance of fully and partially processed forms of VEGF-D” value in assay [1] (0, 1, 10, 50 or 100 μM, 18 hours, Western blot) was “dramatically reduced in abundance in a dose-dependent manner”. Besides, the “proteolytic processing of full-length VEGF-D” value is “totally blocked” in assay [1] (18 hours) and “complete inhibition” in assay [1] (18 hours, listed as dec-RVKR-CMK). The “proteolysis of VEGF-D-FULL-N-FLAG” value in assay [1] (concentrations lower than 100 μM) is recorded as “incompletely inhibited”. The “proteolytic cleavage of the N-terminal propeptide from the VHD, at both Major and Minor cleavage sites” value in assay [2] is reported as “completely abrogated”. In addition, in assay [2] (100 μM), the “proteolytic processing of VEGF-DΔC” value is reported as “completely blocked”. The “band representing mature VHD from VEGF-DΔC” value in assay [2] is reported as “reduced in abundance in a dose dependent manner”; in assay [2] (listed as dec-RVKR-CMK), “blocked each of these processing events in a dose-dependent fashion”. The “proteolytic processing of VEGF-DΔN” value in assay [3] (100 μM) is “completely blocked”. In addition, the entries for the “band representing mature VHD from VEGF-DΔN” value in assay [3] and in assay [3] (listed as dec-RVKR-CMK) were “reduced in abundance in a dose dependent manner” and “blocked each of these processing events in a dose-dependent fashion”, respectively. Also, the VEGF-D propeptide processing result in assay [4] is on record as “almost completely blocked”. For the same substance, the inhibition of furin result with Furin is on record as “potently inhibited”.
